# pKi: −log10 of the molar value.
# Biological target: Traf2- and Nck-interacting kinase (TNIK) (Homo sapiens, UniProt Q9UKE5)
# Assay: ATP competition binding assay (KdELECT, KINOMEscan), triplicate 11-point dose-response curves
# Chain of Traf2- and Nck-interacting kinase (TNIK) (Q9UKE5 whole entry): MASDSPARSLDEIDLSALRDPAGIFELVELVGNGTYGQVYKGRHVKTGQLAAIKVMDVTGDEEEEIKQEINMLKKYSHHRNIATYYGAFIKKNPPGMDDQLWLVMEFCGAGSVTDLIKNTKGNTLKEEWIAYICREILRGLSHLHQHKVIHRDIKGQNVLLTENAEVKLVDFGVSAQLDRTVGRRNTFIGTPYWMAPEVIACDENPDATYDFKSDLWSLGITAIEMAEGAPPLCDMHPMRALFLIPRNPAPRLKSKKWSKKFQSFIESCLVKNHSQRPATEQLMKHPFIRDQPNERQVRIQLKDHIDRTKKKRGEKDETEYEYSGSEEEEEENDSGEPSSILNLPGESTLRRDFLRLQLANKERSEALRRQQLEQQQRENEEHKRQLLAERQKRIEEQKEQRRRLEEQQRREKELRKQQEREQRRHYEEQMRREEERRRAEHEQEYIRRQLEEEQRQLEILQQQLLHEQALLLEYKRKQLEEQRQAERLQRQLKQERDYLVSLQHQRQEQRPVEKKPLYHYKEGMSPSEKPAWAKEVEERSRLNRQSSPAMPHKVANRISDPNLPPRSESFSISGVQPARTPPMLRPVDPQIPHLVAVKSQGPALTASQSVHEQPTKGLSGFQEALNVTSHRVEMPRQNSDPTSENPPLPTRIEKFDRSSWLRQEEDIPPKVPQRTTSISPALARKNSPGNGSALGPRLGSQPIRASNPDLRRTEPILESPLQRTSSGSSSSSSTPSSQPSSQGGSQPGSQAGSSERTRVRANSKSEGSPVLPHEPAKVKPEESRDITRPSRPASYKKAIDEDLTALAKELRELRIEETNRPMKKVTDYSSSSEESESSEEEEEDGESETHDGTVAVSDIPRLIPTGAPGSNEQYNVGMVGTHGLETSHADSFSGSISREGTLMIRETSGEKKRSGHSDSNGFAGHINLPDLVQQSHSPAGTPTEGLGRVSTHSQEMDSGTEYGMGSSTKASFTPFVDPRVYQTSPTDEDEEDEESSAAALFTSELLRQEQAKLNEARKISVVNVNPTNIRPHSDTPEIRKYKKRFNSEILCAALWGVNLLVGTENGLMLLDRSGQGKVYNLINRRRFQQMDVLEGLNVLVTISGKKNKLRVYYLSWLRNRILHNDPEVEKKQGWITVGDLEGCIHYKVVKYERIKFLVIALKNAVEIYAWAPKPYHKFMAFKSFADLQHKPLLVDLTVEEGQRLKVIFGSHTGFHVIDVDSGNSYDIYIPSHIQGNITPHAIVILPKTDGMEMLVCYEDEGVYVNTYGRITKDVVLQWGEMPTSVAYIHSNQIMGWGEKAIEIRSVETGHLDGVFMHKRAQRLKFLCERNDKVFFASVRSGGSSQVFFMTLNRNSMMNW
compound,measurement,value
"Cc1ccc(C(=O)Nc2sc(Nc3ccccc3)nc2C(N)=O)cc1 [KY-05009, 5-(4-methylbenzamido)-2-(phenylamino)thiazole-4-carboxamide]",pKi,7.00
